The results in this text go back to US20220364056A1, “SHORT-CHAIN FATTY ACID PENTANOATE AS ENHANCER FOR CELLULAR THERAPY AND ANTI-TUMOR THERAPY” (PHILIPPS-UNIVERSITÄT MARBURG, priority 2019, published 2022).

Test [1] relates to CD8+ cytotoxic T lymphocytes (CTLs). Put plainly: murine CTLs cultivated under suboptimal conditions with SCFAs; cytokines and effector molecules by flow cytometry and ELISA. Format: cell-based. From the text:
It is known that the glycolytic metabolic pathway promotes IFN-γ expression and T cell effector function. […] We next investigated if acetylation of H4 was increased at CTL-characteristic loci (Ifnγ, Tbx21 and Eomes) after treatment of CTLs with pentanoate. […] Due to the high level of heterogeneity and plasticity within T lymphocytes, we next investigated possible effects of pentanoate on other CD8^+ T cell subtypes. […] To gain further insight into possible therapeutic strategies, we next investigated the impact of pentanoate on human CD8^+ T lymphocytes.
(§1) (A) Experimental design for the treatment of CTLs with the water-soluble fraction of intestinal content derived from SPF or GF mice. (B and C) Frequencies of IFN-γ- and TNF-α-producing CTLs treated with the extract from luminal content derived from indicated organs. Representative results of two experiments are shown (n=3). (D) ELISA was performed to measure the secretion of TNF-α by CLTs treated as shown in (A). (E) Quantitative measurement of total SCFA amounts in fecal samples of SPF and GF mice (n=5). (F and G) The percentage of IFN-γ^+ TNF-α^+ CTLs treated with the indicated SCFAs for three days (n=3, one of three independent experiments is shown). (H) The secretion of TNF-α from CTLs treated with SCFAs was determined by ELISA (n=3, one of two independent experiments is shown). (I) The fluorogenic HDAC assay was applied to measure the HDAC inhibitory activity of SCFAs on CTLs. The value for unstimulated CTLs was arbitrarily set to 1.0. Four independent experiments were performed. (J and K) Representative contour plots (J) and bar graphs (K) showing the frequency of IFN-γ+ and TNF-α+ cells after pentanoate (2 mM) or VPA (0.5 mM) administration. Three similar experiments were performed. (L and M) The frequency of Eomes- and T-bet-expressing CTLs treated with pentanoate (2 mM) or VPA (0.5 mM) for three days was analyzed by flow cytometry (n=4). (N) ChIP assay showing the acetylation of histone H4 at the promoter regions of Ifnγ and Eomes genes after 24 hours of treatment of CTLs with pentanoate. Data are from pooled chromatin of three mice.
Representative histogram plots (A) and bar graphs (B) are showing the frequency of Annexin V^+ cells. Three similar experiments were performed. (C) Representative effector molecule staining of CD8^+ T cells polarized under suboptimal CTL-inducing conditions, treated with pentanoate or TSA (10 nM Sigma-Aldrich) in presence of 2-DG (1 mM, Sigma-Aldrich) or rapamycin (100 nM, Sigma-Aldrich) for 3 days. Three independent experiments were performed. (D) Western blot analysis of H3Ac and H4Ac in CD8^+ T cells treated with SCFAs for 3 days. (E) Pan-H4Ac ChIP qPCR analysis for Tbx21 promoter accessibility in pentanoate-treated CTLs. Data are from pooled chromatin of three mice. (F and G) CD8^+ T cells isolated from WT and Tbx21^−/− mice were polarized under suboptimal CTL-inducing conditions in presence of increasing pentanoate concentrations. Representative contour plots (F) and bar graphs (G) show the frequency of IFN-γ+ and IL-17A^+ cells. Two similar experiments were performed. […]

A further test deals with mTOR. Put plainly: phosphorylation of mTOR and S6 in human CTLs. The conditions noted are these: three days. Type of test: cell-based. The procedure:
(A and B) CTLs were cultured in medium containing 1.0% FCS and treated with pentanoate (2.5 mM) for three days. Representative histogram plots and bar graphs indicate the phoshorylated levels of mTOR (A) and S6 ribosomal protein (B), respectively (n=3 pooled from three independent experiments). (C and D) Human CTLs were cultured in medium containing 1.0% serum and treated with indicated HDACi for three days. Representative histogram plots and bar graphs indicate the phoshorylated levels of mTOR (C) and S6 ribosomal protein (D), respectively (data points represent four individual healthy donors) (E) Measurement of extracellular acidification rate (ECAR) for in vitro generated murine CTLs cultured with or without 2.5 mM pentanoate for three days. ECAR was measured under basal conditions and in response to glucose (10 mM), oligomycin (2 μM), and 2-deoxy-glucose (2-DG, 100 mM). One of three independent experiments is shown.

In another test the test system is class I HDAC isoforms. In words: HDAC inhibition of recombinant class I HDAC isoforms. Format: biochemical. The conditions noted are these: cell-free supernatants vs YCFA medium; TSA as control.
Test [2] has as its system class II HDACs (HDAC4, HDAC5, HDAC6 and HDAC9). Put plainly: HDAC inhibition of recombinant class II HDAC isoforms. Format: biochemical. Here is the method:
(A) The production of SCFAs, branched-chain fatty acids (BCFAs) and medium-chain fatty acids (MCFAs) by 16 human commensals was measured by GC-MS. All bacteria were grown in vitro until stationary growth phase before the measurement of fatty acids in supernatants. (B and C) HDAC inhibition of recombinant class I and class II HDAC isoforms by cell-free supernatants derived from 16 members of human commensal community. Significance was tested against YCFA medium. (D) Impact of bacterial SCFAs, BCFAs and MSCFAs on the activity of class I and II HDAC enzymes. TSA was used as a control pan-HDAC inhibitor.

The subject of a further test is human CD8+ T lymphocytes. In words: human CD8+ T lymphocytes differentiated into CTLs, flow cytometry. Format: cell-based. The conditions noted are these: healthy donors. Here is the method: (A and B) CD8^+ T cells isolated from spleens and LNs were polarized under Tc17-inducing conditions and treated with pentanoate for 3 days. Representative contour plots (A) and bar graphs (B) indicate the frequency of IL-17^+ and IFN-γ+ cells. Three similar experiments were performed. (C and D) CD8^+ T cells isolated from spleens and LNs were polarized under Tc9-inducing conditions and treated with pentanoate for 3 days. Representative contour plots (C) and bar graphs (D) are showing the frequency of IL-9^+ and IFN-γ+ cells. Three similar experiments were performed. (E and F) The expression of granzyme B, IFN-γ and Eomes in pentanoate-treated human CTLs was analysed by flow cytometry. Five independent experiments were performed (E). For Eomes, mean fluorescence intensity (MFI) values are shown (F, n=3).
(A) CD8^+ T cells isolated from peripheral blood of healthy donors were differentiated into CTLs in presence or absence of indicated HDACi. Representative contour plots and dot plots indicate the frequency of TNF-α+ and IFN-γ^+ cells. Data points in the graphs represent individual donors (n=4, performed in 4 independent experiments) (B-G) Phenotyping of pentanoate-treated ROR1-specific CD8^+ CAR T cells (CARROR1 T cells). (B) Experimental setup for the functional analysis is shown. (C) The cytokine secretion (IFN-γ and TNF-α) was analysed in supernatants of pentanoate-treated CARROR1 T cells by ELISA. (D) The surface expression of CD25 was measured by flow cytometry. (E) The secretion of IL-2 was detected in supernatants of CARROR1 T cells by ELISA. (F) Proliferation of CARROR1 T cells was determined by CFSE labelling. CARROR1 T cells pre-treated with pentanoate were stained with CFSE and subsequently co-cultured with […] cells in the absence of pentanoate. CD8^+ T cells without the CAR construct were used as mock control cells. […] The percentage of lysed target cells was determined in 1 hour intervals (effector-to-target cell (E:T) ratio=2.5:1). […]

The next test relates to HDAC. Put plainly: fluorogenic HDAC assay on CTL-derived cell lysates. Type of test: biochemical, murine. The conditions noted are these: unstimulated CTLs set to 1.0. The procedure:
as §1, with “(N) ChIP assay showing the acetylation of histone H4 at the promoter regions of Ifnγ and Eomes genes after 24 hours of treatment of CTLs with pentanoate. Data are from pooled chromatin of three mice.” left out

In another test the test system is histones H3 and H4. Put plainly: Western blot of H3Ac and H4Ac in CD8+ T cells. Type of test: cell-based, murine. The conditions noted are these: SCFAs for 3 days. The procedure: Representative histogram plots (A) and bar graphs (B) are showing the frequency of Annexin V^+ cells. Three similar experiments were performed. (C) Representative effector molecule staining of CD8^+ T cells polarized under suboptimal CTL-inducing conditions, treated with pentanoate or TSA (10 nM Sigma-Aldrich) in presence of 2-DG (1 mM, Sigma-Aldrich) or rapamycin (100 nM, Sigma-Aldrich) for 3 days. Three independent experiments were performed. (D) Western blot analysis of H3Ac and H4Ac in CD8^+ T cells treated with SCFAs for 3 days. (E) Pan-H4Ac ChIP qPCR analysis for Tbx21 promoter accessibility in pentanoate-treated CTLs. Data are from pooled chromatin of three mice. (F and G) CD8^+ T cells isolated from WT and Tbx21^−/− mice were polarized under suboptimal CTL-inducing conditions in presence of increasing pentanoate concentrations. Representative contour plots (F) and bar graphs (G) show the frequency of IFN-γ+ and IL-17A^+ cells. Two similar experiments were performed.

Turning to `O=CC[C@@H](O)[C@H](O)[C@H](O)CO` [2-DG, 2-deoxyglucose, reference compound], in test [1] (2-DG 1 mM or rapamycin 100 nM, 3 days), the “IFN-γ production in CTLs” value was “reduction”.
For `CC(C)(CNC(=O)c1cccc(-c2noc(C(F)(F)F)n2)c1)c1coc(-c2ccccc2)n1` [TMP-195, reference compound], in the test on mTOR, the “phosphorylation level of S6 ribosomal protein” value is “neither mocetinostat (HDAC class I inhibitor MGCD0103) nor TMP 195 (HDAC class II inhibitor) had a significant effect”.
On to `CC(/C=C/C(=O)NO)=C\[C@@H](C)C(=O)c1ccc(N(C)C)cc1` [TSA, trichostatin A, reference compound], for which the “reversal of the effect on granzyme B+IFN-γ+ cells by rapamycin” value in test [1] (rapamycin 100 nM co-treatment) is “could not be reversed”. Further, the “percentages of granzyme B+IFN-γ+ CD8+ T cells” value in test [1] (vs control CTLs, TSA 10 nM, 3 days) was “substantially enhanced”. In the test on class I HDAC isoforms, the “activity of class I HDAC isoforms” value is “inhibited”. Also, the “activity of class II HDACs” value in test [2] is recorded as “inhibited”.
Regarding `Nc1ccccc1NC(=O)c1ccc(CNc2nccc(-c3cccnc3)n2)cc1` [mocetinostat, reference compound], the “expression of TNF-α and IFN-γ” value with human CD8+ T lymphocytes is on record as “promoted the similar effects”. Also, in the test on mTOR, the “phosphorylation level of S6 ribosomal protein” value was “neither mocetinostat (HDAC class I inhibitor MGCD0103) nor TMP 195 (HDAC class II inhibitor) had a significant effect”.
In the case of `CCC(=O)O` [propionate, reference compound], in the test with HDAC, the “HDAC activity of CTL-derived cell lysates” value is “strong reduction of HDAC activity”. Besides, the “acetylation of histones H3 and H4” value with histones H3 and H4 was “increased acetylation”.
